Assay results: patent publication US4778796A, “ω-(3-pyridyl)alkenamide derivatives and anti-allergenic pharmaceutical compositions containing same” (Dainippon Pharmaceutical Co., Ltd., priority 1985, dated 1988)

What was measured:
[1] = tested on: histamine-induced contraction of isolated guinea pig trachea; test: Inhibitory effect on histamine-induced contraction of isolated guinea pig trachea; design: species or system guinea pig (male Hartley)
Method: (2) Inhibitory effect on histamine-induced contraction of isolated guinea pig trachea:
Male Hartley guinea pigs (400-700 g) were used. Zig-zag strips of guinea pig trachea were prepared by the method of Emmerson and Mackay [cf. J. Pharm. […] Dose-response curves for histamine were obtained before and 5 minutes after the addition of test compounds. Inhibitory rate was calculated from contraction heights in 3×10^-5 M of histamine without vs. with test compound.

[2] = tested on: passive cutaneous anaphylaxis (PCA); test: Inhibitory effect on passive cutaneous anaphylaxis (PCA) in rats; type: in vivo, rat (male Wistar); details: Rattus norvegicus; 20 mg/kg, oral, 1 hour before antigen challenge; read-out: Inhibition (PCA in rats)
Method: (1) Inhibitory effect on passive cutaneous anaphylaxis (PCA) in rats:
This test was carried out by the method of Perper et al. [cf.
Male Wistar rats (130-180 g) were injected with 0.1 ml of a dilute solution of mouse antiserum to egg albumin in two sites of the shaved ventral skin. Forty-eight hours later each rat was challenged by an intravenous injection of 2 mg of the antigen together with 1 ml of a 0.5% Evan's blue saline solution. The rats were sacrificed 30 minutes after the challenge. The area of the blueing lesions was measured on the undersurface of the skin. The average value of the two lesions of each rat was regarded as the response of the rat. Test compounds in a dose of 20 mg/kg, dissolved or suspended in a 0.5% aqueous tragacanth solution, were administered orally 1 hour before the antigen challenge. The inhibitory rate was determined by comparing the responses of the rats given each test compound with those of the rats given only a 0.5% aqueous tragacanth solution. Each group of 3 rats was used for each test compound. The mouse antiserum to egg albumin was produced by the method of Levine and Vaz [cf. Int. Arch. Allergy Appl.

[3] = tested on: contact hypersensitivity to oxazolone; test: Inhibitory effect on contact hypersensitivity to oxazolone in mice; type: in vivo, mouse (male ICR); details: topical, 24 hours after challenge
Method: (3) Inhibitory effect on contact hypersensitivity to oxazolone in mice:
This test was carried out by the method of Evans et al. [cf. Brit.
Male ICR mice (18-20 g) were used. The abdominal region of the mice was carefully clipped with an electric clipper, and 0.1 ml of a 0.5 w/v % oxazolone solution in absolute ethanol was gently rubbed into the clipped area. Five days after the sensitization 20 μl of a 0.5 w/v % oxazolone solution in acetone or chloroform, or the solution containing test compound was applied to both sides of the right ear. The left ear was not treated. Twenty-four hours after the challenge, the animals were sacrificed with diethyl ether. The circular parts (5.5 mm in diameter) of both ears were removed by punching and then weighed. The inhibitory rate was determined by comparing the ear swelling of the mice treated with oxazolone containing test compound with that of the mice treated with oxazolone. Each group of 8 mice was used for each dose of the test compound.

Cc1ccc(C=CC(=O)NCCCCN2CCN(C(c3ccccc3)c3ccccc3)CC2)cn1 [Example 2, N-[3-(6-methyl-3-pyridyl)acryloyl]-4-(4-diphenylmethyl-1-piperazinyl)butylamine]
IC50 ([1]; 3×10^-5 M histamine, isolated guinea pig trachea, read-out: Anti-hist. activity IC50): 1100 nM
antihistamine activity (in words) ([1]; compared with ketotifen fumarate): potent antihistamine activity, though fairly inferior to that of ketotifen fumarate
inhibition in vivo at 20 mg/kg [2]: 81.9%
% Inhibition of ear swelling ([3]; 0.3 mg/ear): 40.8%
% Inhibition of ear swelling ([3]; 1.0 mg/ear): 90.0%
